Earlier results, collected in patent US20120316496A1, “USE OF COMPOSITIONS TO COAT CATHETER BALLOONS AND COATED CATHETER BALLOONS” (priority 2009, published 2012).

Settings: at 20° C.

vapor pressure | Compound
20 Pa | CC12CCC(CC1=O)C2(C)C (stereo not shown) [Camphor]
250 Pa | C[S+](C)[O-] [DMSO, dimethyl sulfoxide]
9700 Pa | CCOC(C)=O [Ethyl acetate]

Compound | vapor pressure
OCCO [Ethylene glycol] | 5,3 Pa
